Test results as given in patent publication US9611251B2, “Substituted piperidine compounds and their use as orexin receptor modulators” (Janssen Pharmaceutica NV, priority 2013, dated 2017).

Legend:
rat orexin 1 receptor = rat orexin 1 receptor (Rattus norvegicus, UniProt P56718); experiment: Rat orexin 1 receptor radioligand binding; conditions: rat orexin 1 receptor radioligand binding; averages of 2-20 runs; read-out: rOX1 Ki
Outline: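 Cell-suspension competition binding used 4 nM final tritiated thiazolyl-pyrrolidinyl-methanone radioligand in PBS, ≤0.1% DMSO, with 10 µM almorexant defining nonspecific binding. Filter-bound radioactivity was counted in triplicate. IC50 came from one-site competition fits and was converted to Ki using the predetermined Kd.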

human orexin 1 receptor = human orexin 1 receptor (Homo sapiens, UniProt O43613); experiment: Human orexin 1 receptor radioligand binding; conditions: human orexin 1 receptor radioligand binding; averages of 2-20 runs; read-out: hOX1 Ki
human orexin 2 receptor = human orexin 2 receptor (Homo sapiens (Human), UniProt O43614); experiment: Human orexin 2 receptor radioligand binding ([3H]-EMPA); conditions: averages of 2-20 runs, read-out: hOX2 Ki
Outline: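 Competition binding using homogenized HEK293 cells stably expressing human orexin 2 receptor, [3H]-EMPA at 2 nM final and ≤0.1% DMSO; nonspecific binding set with 10 μM almorexant. Filter-bound radioactivity counted by scintillation; one-site competition IC50 converted to Ki using pre-determined Kd, compounds run in triplicate.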

Sequence of human orexin 2 receptor (O43614 whole entry): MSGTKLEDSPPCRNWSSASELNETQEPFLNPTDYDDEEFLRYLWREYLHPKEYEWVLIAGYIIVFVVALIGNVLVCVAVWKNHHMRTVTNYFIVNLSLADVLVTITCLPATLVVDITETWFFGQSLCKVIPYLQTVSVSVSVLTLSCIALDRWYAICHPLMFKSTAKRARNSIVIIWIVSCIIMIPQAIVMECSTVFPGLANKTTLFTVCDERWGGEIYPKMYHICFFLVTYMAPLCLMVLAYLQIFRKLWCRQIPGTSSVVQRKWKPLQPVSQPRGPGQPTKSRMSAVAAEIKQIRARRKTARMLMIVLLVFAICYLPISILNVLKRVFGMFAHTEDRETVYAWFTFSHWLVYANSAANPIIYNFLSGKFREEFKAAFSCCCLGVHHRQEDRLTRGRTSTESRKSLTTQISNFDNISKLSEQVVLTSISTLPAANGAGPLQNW

| SMILES | Ki (rat orexin 1 receptor) [µM] | Ki (human orexin 1 receptor) [µM] | Ki (human orexin 2 receptor) [µM] |
| --- | --- | --- | --- |
| C[C@H]1[C@H](Oc2cnc(C(F)(F)F)cn2)CCCN1C(=O)c1cccc(F)c1-n1nccn1 [Example 125, (3-fluoro-2-(2H-1,2,3-triazol-2-yl)phenyl)((2S,3R)-2-methyl-3-((5-(trifluoromethyl)pyrazin-2-yl)oxy)piperidin-1-yl)methanone] | 0.117 | 0.138 | 2.5 |
| C[C@H]1[C@H](Oc2ccc(C(F)(F)F)cn2)CCCN1C(=O)c1cc(F)ccc1-c1ncccn1 [Example 138, (5-fluoro-2-(pyrimidin-2-yl)phenyl)((2S,3R)-2-methyl-3-((5-(trifluoromethyl)pyridin-2-yl)oxy)piperidin-1-yl)methanone] | 0.02 | 0.018 | 0.544 |
| C[C@H]1[C@H](Oc2ccc(C(F)(F)F)cn2)CCCN1C(=O)c1ccc(F)cc1-c1ncccn1 [Example 139, (4-fluoro-2-(pyrimidin-2-yl)phenyl)((2S,3R)-2-methyl-3-((5-(trifluoromethyl)pyridin-2-yl)oxy)piperidin-1-yl)methanone] | 0.051 | 0.051 | 1.2 |
| C[C@H]1[C@H](Oc2ccc(C(F)(F)F)cn2)CCCN1C(=O)c1ccccc1-c1ncc(F)cn1 [Example 141, (2-(5-fluoropyrimidin-2-yl)phenyl)((2S,3R)-2-methyl-3-((5-(trifluoromethyl)pyridin-2-yl)oxy)piperidin-1-yl)methanone] | 0.031 | 0.022 | 0.676 |
| C[C@H]1[C@H](Oc2ccc(C(F)(F)F)cn2)CCCN1C(=O)c1ccccc1-c1ncccn1 [Example 143, ((2S,3R)-2-methyl-3-((5-(trifluoromethyl)pyridin-2-yl)oxy)piperidin-1-yl)(2-(pyrimidin-2-yl)phenyl)methanone] | 0.025 | 0.015 | 0.473 |
| C[C@H]1[C@H](Oc2ccc(C(F)(F)F)cn2)CCCN1C(=O)c1ccc(F)cc1-n1nccn1 [Example 147, (4-fluoro-2-(2H-1,2,3-triazol-2-yl)phenyl)((2S,3R)-2-methyl-3-((5-(trifluoromethyl)pyridin-2-yl)oxy)piperidin-1-yl)methanone] | 0.05 | 0.031 | 0.765 |
| Cc1cnc(-n2nccn2)c(C(=O)N2CCC[C@@H](Oc3ccc(C(F)(F)F)cn3)[C@@H]2C)c1 [Example 149, (5-methyl-2-(2H-1,2,3-triazol-2-yl)pyridin-3-yl)((2S,3R)-2-methyl-3-((5-(trifluoromethyl)pyridin-2-yl)oxy)piperidin-1-yl)methanone] | 0.024 | 0.018 | 5.6 |
| Cc1ccc(C(=O)N2CCC[C@@H](Oc3ccc(C(F)(F)F)cn3)[C@@H]2C)c(-n2nccn2)n1 [Example 150, (6-methyl-2-(2H-1,2,3-triazol-2-yl)pyridin-3-yl)((2S,3R)-2-methyl-3-((5-(trifluoromethyl)pyridin-2-yl)oxy)piperidin-1-yl)methanone] | 0.032 | 0.039 | > 10 |
| Cc1cccc(C(=O)N2CCC[C@@H](Oc3ccc(C(F)(F)F)cn3)[C@@H]2C)c1-c1ncccn1 [Example 151, (3-methyl-2-(pyrimidin-2-yl)phenyl)((2S,3R)-2-methyl-3-((5-(trifluoromethyl)pyridin-2-yl)oxy)piperidin-1-yl)methanone] | 0.035 | 0.031 | 0.537 |
| Cc1cccc(C(=O)N2CCC[C@@H](Oc3ccc(C(F)(F)F)cn3)[C@@H]2C)c1-n1nccn1 [Example 152, (3-methyl-2-(2H-1,2,3-triazol-2-yl)phenyl)((2S,3R)-2-methyl-3-((5-(trifluoromethyl)pyridin-2-yl)oxy)piperidin-1-yl)methanone] | 0.028 | 0.02 | 0.412 |
| C[C@H]1[C@H](Oc2ncc(C(F)(F)F)cc2F)CCCN1C(=O)c1ccccc1-c1ncccn1 [Example 154, ((2S,3R)-3-((3-fluoro-5-(trifluoromethyl)pyridin-2-yl)oxy)-2-methylpiperidin-1-yl)(2-(pyrimidin-2-yl)phenyl)methanone] | 0.046 | 0.022 | 0.526 |
| C[C@H]1[C@H](Oc2ncc(C(F)(F)F)cc2F)CCCN1C(=O)c1cccc(F)c1-c1ncccn1 [Example 155, (3-fluoro-2-(pyrimidin-2-yl)phenyl)((2S,3R)-3-((3-fluoro-5-(trifluoromethyl)pyridin-2-yl)oxy)-2-methylpiperidin-1-yl)methanone] | 0.028 | 0.016 | 1.1 |
| C[C@H]1[C@H](Oc2ncc(C(F)(F)F)cc2F)CCCN1C(=O)c1ccccc1-c1ncc(F)cn1 [Example 156, ((2S,3R)-3-((3-fluoro-5-(trifluoromethyl)pyridin-2-yl)oxy)-2-methylpiperidin-1-yl)(2-(5-fluoropyrimidin-2-yl)phenyl)methanone] | 0.047 | 0.03 | 1.3 |
| Cc1cnc(-n2nccn2)c(C(=O)N2CCC[C@@H](Oc3ncc(C(F)(F)F)cc3F)[C@@H]2C)c1 [Example 157, ((2S,3R)-3-((3-fluoro-5-(trifluoromethyl)pyridin-2-yl)oxy)-2-methylpiperidin-1-yl)(5-methyl-2-(2H-1,2,3-triazol-2-yl)pyridin-3-yl)methanone] | 0.049 | 0.027 | > 10 |
| Cc1cccc(C(=O)N2CCC[C@@H](Oc3ncc(C(F)(F)F)cc3F)[C@@H]2C)c1-n1nccn1 [Example 158, ((2S,3R)-3-((3-fluoro-5-(trifluoromethyl)pyridin-2-yl)oxy)-2-methylpiperidin-1-yl)(3-methyl-2-(2H-1,2,3-triazol-2-yl)phenyl)methanone] | 0.036 | 0.034 | 0.575 |
| C[C@H]1[C@H](Oc2ncc(C(F)(F)F)cc2F)CCCN1C(=O)c1cccc(F)c1-n1nccn1 [Example 159, (3-fluoro-2-(2H-1,2,3-triazol-2-yl)phenyl)((2S,3R)-3-((3-fluoro-5-(trifluoromethyl)pyridin-2-yl)oxy)-2-methylpiperidin-1-yl)methanone] | 0.06 | 0.014 | 1.55 |
| Cc1ccc(-n2nccn2)c(C(=O)N2CCC[C@@H](Oc3ncc(C(F)(F)F)cc3F)[C@@H]2C)n1 [Example 160, ((2S,3R)-3-((3-fluoro-5-(trifluoromethyl)pyridin-2-yl)oxy)-2-methylpiperidin-1-yl)(6-methyl-3-(2H-1,2,3-triazol-2-yl)pyridin-2-yl)methanone] | 0.023 | 0.022 | 0.62 |
| C[C@H]1[C@H](Oc2ncc(Cl)cn2)CCCN1C(=O)c1cccc(F)c1-n1nccn1 [Example 161, ((2S,3R)-3-((5-chloropyrimidin-2-yl)oxy)-2-methylpiperidin-1-yl)(3-fluoro-2-(2H-1,2,3-triazol-2-yl)phenyl)methanone] | 0.226 | 0.395 | 3.2 |
| Cc1ccc(-n2nccn2)c(C(=O)N2CCC[C@@H](Oc3ncc(Cl)cn3)[C@@H]2C)n1 [Example 164, ((2S,3R)-3-((5-chloropyrimidin-2-yl)oxy)-2-methylpiperidin-1-yl)(6-methyl-3-(2H-1,2,3-triazol-2-yl)pyridin-2-yl)methanone] | 0.144 | 0.23 | 3.8 |
